Reference: the supplement of paper PMC8149375

Legend:
Settings in all cases: treatment: drug + dasatinib (fixed dose, not stated); 5 days
[1] = tested on: 769-P; test: GI50 of drug in presence of dasatinib; higher = less potent
Experimental: (§1)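 Primary HTS combination arm: 8 RCC cell lines treated with 8 doses (up to 10 uM) of each library drug plus a fixed dose of dasatinib (dose not stated) for 5 days; viability read by CellTiter-Glo and normalised to DMSO. GI50 was fitted with XLfit, AUC is the area under the dose-response curve, and minimum viability is the lowest fraction of DMSO viability across doses.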

[2] = tested on: 786-O; test: as above
Experimental: as §1

[3] = tested on: A498; test: as above
Experimental: as §1

[4] = tested on: CAKI-1; test: as above
Experimental: as §1

[5] = tested on: SN12C; test: as above
Experimental: as §1

[6] = tested on: TK-10; test: as above
Experimental: as §1

[7] = tested on: UO-31; test: as above
Experimental: as §1

[8] = tested on: 769-P; test: minimum viability across doses, drug + dasatinib, relative to DMSO (fraction); higher = less growth inhibition
Experimental: as §1

[9] = tested on: 786-O; test: as above
Experimental: as §1

[10] = tested on: A498; test: as above
Experimental: as §1

[11] = tested on: ACHN; test: as above
Experimental: as §1

[12] = tested on: CAKI-1; test: as above
Experimental: as §1

[13] = tested on: SN12C; test: as above
Experimental: as §1

[14] = tested on: TK-10; test: as above
Experimental: as §1

[15] = tested on: UO-31; test: as above
Experimental: as §1

[16] = tested on: 769-P; test: AUC of dose-response viability curve, drug + dasatinib, normalised to DMSO (arbitrary (AUC of normalised viability)); higher = less growth inhibition
Experimental: as §1

[17] = tested on: 786-O; test: as above
Experimental: as §1

[18] = tested on: A498; test: as above
Experimental: as §1

[19] = tested on: ACHN; test: as above
Experimental: as §1

[20] = tested on: CAKI-1; test: as above
Experimental: as §1

[21] = tested on: SN12C; test: as above
Experimental: as §1

[22] = tested on: TK-10; test: as above
Experimental: as §1

[23] = tested on: UO-31; test: as above
Experimental: as §1

SMILES	GI50 of drug [1]	GI50 of drug [2]	GI50 of drug [3]	GI50 of drug [4]	GI50 of drug [5]	GI50 of drug [6]	GI50 of drug [7]	minimum viability across doses [8]	minimum viability across doses [9]	minimum viability across doses [10]	minimum viability across doses [11]	minimum viability across doses [12]	minimum viability across doses [13]	minimum viability across doses [14]	minimum viability across doses [15]	AUC of dose-response viability curve [16]	AUC of dose-response viability curve [17]	AUC of dose-response viability curve [18]	AUC of dose-response viability curve [19]	AUC of dose-response viability curve [20]	AUC of dose-response viability curve [21]	AUC of dose-response viability curve [22]	AUC of dose-response viability curve [23]
Cc1ccccc1-n1c(Cn2cnc3c(N)ncnc32)nc2cccc(C)c2c1=O + Cc1nc(Nc2ncc(C(=O)Nc3c(C)cccc3Cl)s2)cc(N2CCN(CCO)CC2)n1 [dasatinib]	> 10 µM	5.69 µM	> 10 µM	> 10 µM	> 10 µM	> 10 µM	> 10 µM	0.612	0.444	0.859	0.443	0.516	0.695	0.651	0.738	2.4	1.98	3.27	1.87	2.28	2.53	2.49	3.34
CCn1c(N)c(C(=O)NC)c(=O)c2ccc(C#C[C@@](C)(O)COC)nc21 + Cc1nc(Nc2ncc(C(=O)Nc3c(C)cccc3Cl)s2)cc(N2CCN(CCO)CC2)n1 [dasatinib]	> 10 µM	> 10 µM	> 10 µM	> 10 µM	> 10 µM	> 10 µM	> 10 µM	0.671	0.589	0.773	0.432	0.588	0.684	0.721	0.884	2.74	2.59	3.2	1.87	2.43	2.52	2.72	4.43
O=c1cc(N2CCOCC2)oc2c(-c3ccccc3)cccc12 + Cc1nc(Nc2ncc(C(=O)Nc3c(C)cccc3Cl)s2)cc(N2CCN(CCO)CC2)n1 [dasatinib]	5.32 µM	4.54 µM	> 10 µM	3.01 µM	> 10 µM	> 10 µM	9.2 µM	0.412	0.394	0.656	0.362	0.393	0.512	0.663	0.457	2.2	2.28	2.88	1.77	1.98	2.34	2.49	3.24
C[C@@H]1CCN(C(=O)CC#N)C[C@@H]1N(C)c1ncnc2[nH]ccc12 + Cc1nc(Nc2ncc(C(=O)Nc3c(C)cccc3Cl)s2)cc(N2CCN(CCO)CC2)n1 [dasatinib]	> 10 µM	> 10 µM	> 10 µM	> 10 µM	> 10 µM	> 10 µM	> 10 µM	0.664	0.743	1	0.363	0.685	0.695	0.7	1.23	2.6	3.03	3.91	1.62	2.53	2.51	2.59	4.82
Cn1cnc(N)c2ncnc1-2 [3-Methyladenine] + Cc1nc(Nc2ncc(C(=O)Nc3c(C)cccc3Cl)s2)cc(N2CCN(CCO)CC2)n1 [dasatinib]	> 10 µM	> 10 µM	> 10 µM	> 10 µM	> 10 µM	> 10 µM	> 10 µM	0.649	0.542	0.947	0.329	0.673	0.703	0.691	1.03	2.57	2.32	3.49	1.56	2.47	2.57	2.57	4.32
Cc1ccc(-n2nc(C(C)(C)C)cc2NC(=O)Nc2ccc(OCCN3CCOCC3)c3ccccc23)cc1 [BIRB 796 (Doramapimod)] + Cc1nc(Nc2ncc(C(=O)Nc3c(C)cccc3Cl)s2)cc(N2CCN(CCO)CC2)n1 [dasatinib]	> 10 µM	> 10 µM	> 10 µM	> 10 µM	> 10 µM	> 10 µM	> 10 µM	0.537	0.639	0.755	0.439	0.567	0.659	0.66	0.946	2.29	2.63	3.07	1.78	2.29	2.4	2.49	3.79
CCN(CCO)CCCOc1ccc2c(Nc3cc(CC(=O)Nc4cccc(F)c4)n[nH]3)ncnc2c1 [Barasertib (AZD1152-HQPA)] + Cc1nc(Nc2ncc(C(=O)Nc3c(C)cccc3Cl)s2)cc(N2CCN(CCO)CC2)n1 [dasatinib]	1.23 µM	0.113 µM	> 10 µM	0.678 µM	> 10 µM	> 10 µM	> 10 µM	0.346	0.157	0.841	0.417	0.402	0.628	0.685	0.842	2.09	1.61	3.31	1.83	2.04	2.41	2.65	3.22
CCCNC(=O)Nc1ccc(Oc2ncnc3cc(OC)c(OC)cc23)cc1Cl [KRN 633] + Cc1nc(Nc2ncc(C(=O)Nc3c(C)cccc3Cl)s2)cc(N2CCN(CCO)CC2)n1 [dasatinib]	> 10 µM	> 10 µM	> 10 µM	> 10 µM	> 10 µM	> 10 µM	> 10 µM	0.511	0.468	0.847	0.421	0.556	0.612	0.613	0.889	2.44	2.06	3.47	1.76	2.31	2.51	2.5	3.62
CN1C(=O)C(Cc2c[nH]c3ccccc23)NC1=S (stereo not given) [Necrostatin-1] + Cc1nc(Nc2ncc(C(=O)Nc3c(C)cccc3Cl)s2)cc(N2CCN(CCO)CC2)n1 [dasatinib]	> 10 µM	> 10 µM	> 10 µM	> 10 µM	> 10 µM	> 10 µM	> 10 µM	0.71	0.628	0.963	0.492	0.535	0.7	0.639	1.06	2.66	2.48	3.71	1.92	2.13	2.59	2.34	4.58
Oc1cc(O)cc(/C=C/c2ccc(O)c(O)c2)c1 [Piceatannol] + Cc1nc(Nc2ncc(C(=O)Nc3c(C)cccc3Cl)s2)cc(N2CCN(CCO)CC2)n1 [dasatinib]	9.79 µM	0.354 µM	> 10 µM	1.15 µM	> 10 µM	> 10 µM	> 10 µM	0.498	0.31	0.903	0.167	0.135	0.603	0.653	1.24	1.97	1.91	3.83	1.78	2.07	2.46	2.59	5.19
Cn1cc(-c2ccc3nnc(Sc4ccc5ncccc5c4)n3n2)cn1 [SGX-523] + Cc1nc(Nc2ncc(C(=O)Nc3c(C)cccc3Cl)s2)cc(N2CCN(CCO)CC2)n1 [dasatinib]	> 10 µM	5.68 µM	> 10 µM	5.5 µM	> 10 µM	> 10 µM	> 10 µM	0.548	0.477	0.743	0.452	0.41	0.679	0.646	0.836	2.38	2.25	2.84	1.87	1.92	2.46	2.41	3.15
O=c1sn(-c2cccc3ccccc23)c(=O)n1Cc1ccccc1 [Tideglusib] + Cc1nc(Nc2ncc(C(=O)Nc3c(C)cccc3Cl)s2)cc(N2CCN(CCO)CC2)n1 [dasatinib]	> 10 µM	0.0101 µM	> 10 µM	> 10 µM	> 10 µM	> 10 µM	> 10 µM	0.632	0.429	0.729	0.357	0.664	0.672	0.642	1.03	2.52	1.76	3.01	1.79	2.44	2.5	2.33	4.27
CCO.N#CC(=C(/N)Sc1ccccc1N)/C(C#N)=C(\N)Sc1ccccc1N [U0126-EtOH] + Cc1nc(Nc2ncc(C(=O)Nc3c(C)cccc3Cl)s2)cc(N2CCN(CCO)CC2)n1 [dasatinib]	> 10 µM	> 10 µM	> 10 µM	6.71 µM	> 10 µM	> 10 µM	> 10 µM	0.68	0.526	0.888	0.353	0.46	0.598	0.524	0.792	2.5	2.5	3.54	1.84	2.37	2.4	2.65	3.2
NC(=O)c1ccc(N(C(N)=O)c2c(F)cccc2F)nc1-c1ccc(F)cc1F [VX-702] + Cc1nc(Nc2ncc(C(=O)Nc3c(C)cccc3Cl)s2)cc(N2CCN(CCO)CC2)n1 [dasatinib]	> 10 µM	> 10 µM	> 10 µM	> 10 µM	> 10 µM	> 10 µM	> 10 µM	0.627	0.547	0.887	0.409	0.649	0.685	0.598	1.12	2.4	2.23	3.52	1.87	2.43	2.54	2.39	4.36
Cl.Cl.Clc1ccc(Nc2nnc(Cc3ccncc3)c3ccccc23)cc1 [Vatalanib dihydrochloride (PTK787)] + Cc1nc(Nc2ncc(C(=O)Nc3c(C)cccc3Cl)s2)cc(N2CCN(CCO)CC2)n1 [dasatinib]	7.92 µM	> 10 µM	> 10 µM	2.76 µM	> 10 µM	> 10 µM	> 10 µM	0.433	0.549	0.729	0.474	0.217	0.632	0.666	0.834	2.3	2.65	3.2	1.91	2.04	2.32	2.63	3.35
